Laboratory results as given in patent EP0046707B1, “Derivatives of 4-aminobutyric acid and the medicines especially active on the central nervous system containing them” (priority 1980, dated 1982).
Read-outs that look alike come from different tables or passages of the source.

Key:
[1] = Acute toxicity (mortality over 24 h); conditions: in vivo, po, mouse, observed 24 h
Method: Les produits à étudier sont administrés par voie orale aux doses de 500 et 1 000 mg/kg à des lots de souris. On observe les souris pendant 24 h et note la mortalité.
Les résultats exprimés en pourcentage de mortalité figurent dans le tableau XI ci-après.

[2] = system: souris; assay: Potentiation of pentobarbital narcosis (loss of righting reflex); type: in vivo; conditions: mouse; for Pourcentage d'animaux en narcose à 500 mg/kg p. os: 500 mg/kg p. os 1 h before pentobarbital 20 mg/kg i.p.; for ED50: po, p. os 1 h before pentobarbital 20 mg/kg i.p., unit not given for DE 50, read-out: dose (p. os) provoquant 50 % d'induction de narcose (DE 50)
Method: Les produits à étudier ont été administrés per os chez la souris à la dose de 500 mg/kg, 1 h avant le pentobarbital injecté par voie intrapéritonéale à raison de 20 mg/kg.
On détermine le pourcentage des animaux ayant perdu le réflexe de retournement. Les résultats sont exprimés en pourcentage ou, dans quelques cas, en dose efficace 50 (DE 50) ou dose provoquant la narcose chez 50 % des animaux traités.
Les résultats figurent dans le tableau VI ci-après.

[3] = system: souris; assay: Anticonvulsant effect against bicuculline-induced tonic seizures; type: in vivo; conditions: 1 h; mouse, bicuculline 1 mg/kg i.v. 60 min after oral dosing; read-out: Dose efficace médiane de protection des crises toniques (DE 50) Bicuculline
Method: (§1) L'effet anticonvulsivant a été déterminé vis-à-vis des crises convulsives provoquées par l'électrochoc ou par la bicuculline.
La bicuculline est administrée à la souris par voie intraveineuse à raison de 1 mg/kg, 60 min après le produit à étudier donné per os. On note l'effet protecteur obtenu vis-à-vis des crises toniques.
(§2) En opérant sur divers lots d'animaux avec des doses différentes du produit à étudier, on peut déterminer la dose efficace médiane (DE 50).
(§3) Les résultats sont rassemblés dans le tableau VIII ci-après et montrent les propriétés anticonvulsivan- tes nettes des produits étudiés.

[4] = system: souris; assay: Anticonvulsant effect against electroshock seizures; type: in vivo; conditions: 1 h; mouse, electroshock 12.5 V for 0.5 s, 60 min after oral dosing; read-out: Dose efficace médiane de protection des crises toniques (DE 50) Electrochoc
Method: as §1
L'électrochoc (12,5 V pendant 0,5 s) est effectué chez la souris 60 min après l'administration du produit par voie orale.
as §2, §3

[5] = system: souris; assay: Actography (locomotor activity, two perpendicular light beams); type: in vivo; conditions: mouse, 500 mg/kg oral; grouping in words
Method: La mesure de l'actographie est effectuée chez la souris 45 min. après l'administration du produit. On opère sur des lots de 12 animaux, chacun d'eux étant isolé pendant 10 min. avant la mesure. Le comptage des scores est effectué par coupure de deux faisceaux lumineux perpendiculaires.
Dans le tableau IV ci-après sont rassemblés les résultats obtenus avec divers produits de l'invention administrés à la dose de 500 mg/kg par voie orale. Les résultats sont exprimés en pourcentage de variation des scores obtenus par rapport à des animaux témoins non traités.
On peut constater que les produits se répartissent en deux groupes : • ceux provoquant de l'hypomotilité tels que 40217, 40039, 40271, 40272, 40319; dans le cas où les animaux traités présentent une perte du réflexe de retournement, ce qui traduit l'effet de narcose propre du produit, on a noté PRR; • ceux provoquant de l'hypermotilité, tels que 40142, 40398, 40397, 40404, 40253, 40355, 40209; pour préciser les résultats obtenus, l'étude pour deux produits a été reprise en effet-dose suivant le même protocole. • Les résultats obtenus figurent dans le tableau V ci-après.

[6] = system: acide homovanillique (HVA); assay: Effect on central dopaminergic activity (homovanillic acid accumulation in whole brain); type: in vivo, souris; conditions: mouse whole brain, 500 mg/kg p.os
Method: L'effet des produits sur l'activité dopaminergique centrale a été étudié par la mesure de l'accumulation de l'acide homovanillique sur une période de 24 h après l'administration des produits chez la souris.
Le taux d'acide homovanillique (HVA) est évalué dans le cerveau entier, les animaux reçoivent une injection de probenecid (200 mg/kg i.p.) 1 h 30 min avant le sacrifice (lot de 10 animaux).

[7] = 500 mg/kg p. os, read-out: p. cent de mortalité à 500 mg/kg p. os
[8] = 1000 mg/kg p. os, read-out: p. cent de mortalité à 1000 mg/kg p. os

| SMILES | mortality at 24 h [1, 7] | mortality at 24 h [1, 8] | Pourcentage d'animaux en narcose à 500 mg/kg p. os [2] | ED50 [3] | hypomotilité / hypermotilité [5] | other results |
| --- | --- | --- | --- | --- | --- | --- |
| CCCCCN(CCCCC)C(=O)CCCNC(=O)CCC [40 984] | 0% | 100% | 60% | – | – | – |
| CCCCNC(=O)CCNC(=O)CCC [40 253] | 0% | 0% | 50% | < 500 mg/kg | hypermotilité | ED50 [4]: 500 mg/kg |
| CCCCN(CCCC)C(=O)CCCNC(=O)C(C)(C)C [40 272] | 0% | 0% | 72% | – | hypomotilité | – |
| CCCC(=O)NCCCC(N)=O [40 401, Dioxo-2,7 diaza-1,6 décane] | 0% | 0% | 0% | – | – | – |
| CCCCNC(=O)CCCNC(=O)CCC [40 142] | 0% | 0% | – | 325 mg/kg | hypermotilité | Taux de HVA en ([6]; 2 h): 379 ± 11 ng/g; Taux de HVA en ([6]; 4 h): 793 ± 52 ng/g; Taux de HVA en ([6]; 6 h): 571 ± 23 ng/g; Taux de HVA en ([6]; 24 h): 290 ± 16 ng/g; Taux de HVA en ([6]; time 0 (baseline)): 521 ± 29 ng/g; ED50 [4]: 150 mg/kg; ED50 [2]: 297 mg/kg |
| CCCCN(CCCC)C(=O)CCNC(=O)C(C)(C)C [40 319] | 0% | 0% | – | – | hypomotilité | ED50 [2]: 175 mg/kg |
| CCCC(=O)NCCCC(=O)NC(C)(C)CC [40 989] | 0% | 80% | 50% | – | – | – |
| CCCCNC(=O)C(C)CCNC(=O)CCC (stereo not drawn) [40 404] | 0% | 0% | 40% | – | hypermotilité | – |
| CCCCNC(=O)CC(C)NC(=O)CCC (stereo not drawn) [40 395] | 0% | 20% | 70% | – | – | – |
| CCCCN(CCCC)C(=O)CCNC(=O)CCC [40 271] | 0% | 100% | 100% | < 500 mg/kg | hypomotilité | ED50 [4]: 500 mg/kg |
| CCCCN(CCCC)C(=O)CCCNC(=O)C(C)C [40 462] | 0% | 0% | 30% | 150 mg/kg | – | ED50 [4]: 500 mg/kg |
| CCCC(=O)NCCCC(=O)NC1CCCC1 [40 209] | 0% | 20% | – | – | hypermotilité | – |
| CCCCNC(=O)CCCNC(=O)C(C)(C)C [40 254] | 0% | 20% | 50% | < 500 mg/kg | – | – |
| CCCC(=O)NCCCC(=O)NCc1ccccc1 [40 316] | 0% | 0% | 70% | – | – | – |
| CCCCNC(=O)CCCNC(=O)C(C)C [40 467] | 0% | 0% | – | 150 mg/kg | – | ED50 [4]: < 500 mg/kg |
| CCCC(=O)NCCCC(=O)NC(C)C [40 466] | 0% | 0% | 30% | – | – | – |
| CCCC(=O)NCCCC(=O)NCC [40 463] | 0% | 0% | – | 380 mg/kg | – | – |
| CCCCCNC(=O)CCCNC(=O)CCC [40 521] | – | – | – | 250 mg/kg | – | ED50 [4]: 180 mg/kg |
| CCCNC(=O)CCCNC(=O)CCC [40 398] | 0% | 0% | – | – | hypermotilité | ED50 [2]: 350 mg/kg |
| CCCC(=O)NCCCC(=O)N1CCOCC1 [40 206] | 0% | 0% | 0% | – | – | – |
| CCCCNC(=O)CCCNC(=O)C1CC1 [40 443] | 0% | 0% | 40% | – | – | – |
| CCCCCCNC(=O)CCCNC(=O)CCC [40 947] | 0% | 0% | – | 250 mg/kg | – | ED50 [4]: 400 mg/kg |
| CCCC(=O)NCCCC(=O)N(CCC)CCC [40 217] | 0% | 0% | 0% | – | hypomotilité | – |
| CCCCNC(=O)CCCNC(=O)CC(C)C [40 417] | 0% | 20% | – | – | – | – |
| CCCNC(=O)CCCNC(=O)CC(C)C [40 418] | 0% | 0% | – | 300 mg/kg | – | – |
| CCCC(=O)NCCCC(=O)N(C(C)CC)C(C)CC (stereo not drawn) [40 216] | 0% | 100% | 100% | – | – | – |
| CCCCNC(=O)CCNC(=O)C(C)(C)C [40 318] | – | – | 90% | – | – | – |
| CCCCNC(=O)CCC(C)NC(=O)CCC (stereo not drawn) [40 397] | 0% | 20% | 100% | – | hypermotilité | – |
